From patent US20070048782A1, “Methods for assessing and treating leukemia” (priority 2001, published 2007) come the findings set out here.

Each structure is given as a SMILES string.

Assay [1] relates to AML-like cell lines (AML-193, HL-60, THP-1, U-937). Description: Time course assay with cDNA microarray gene expression profiling of treated AML-like cell lines. The assay is classed as cell-based. As to conditions: 100 nM. On the procedure: Duplicate cultures of the cells of Example 1 were inoculated into 6-well plates at an initial concentration of 1×10^5 cells/ml. (B)-6-[amino(4-chlorophenyl)(1-methyl-1H-imidazol-5-yl)methyl]-4-(3-chlorophenyl)-1-methyl-2(1H)-quinolinone) was supplemented at a concentration of 100 nM in 3 μl of DMSO directly to the culture medium. The concentration of 100 nM was chosen for the subsequent time course experiments to normalize the treatment protocol based, in part, on the results of Example 2. Duplicate control cultures were grown in medium containing 0.1% DMSO. Duplicate cultures were harvested daily for a total of six days. Cells were counted, assayed for viability, and total RNA isolated according to the manufacturer's protocol (Qiagen RNeasy). […] RNA was treated with DNase1 (Qiagen DNase1 kit) to remove any residual genomic DNA. Linear amplification of RNA was conducted according to the procedure described in U.S. Pat. No. 5,545,522 to Van Gelder et. al. Aliquots of 5 μg of aRNA were then prepared for hybridization to cDNA arrays. […]
The arrays contained 7452 cDNAs from the IMAGE consortium (Integrated Molecular Analysis of Genome and their Expression: Research Genetics, Huntsville, Ala.) and Incyte libraries. […] The fluorescence intensity for each spot was analyzed with AUTOGENE software (Biodiscovery, Los Angeles). […]

A further assay deals with HL-60 cells. Put plainly: Toxic dose assay, viable cell count by trypan blue exclusion at day seven. Format: cell-based. As to conditions: seven days of treatment, duplicate runs, read-out: IC50 (dose at which the number of viable cells in the treated sample was 50% of that in the control at day seven). On the procedure: (§1) The AML-like cell lines HL-60 (promyelocytic) and U-937 (promonocytic) were obtained from the ATCC. AML-193 (monocytic) and THP-1 (monocytic) cells were obtained from the RW Johnson Pharmaceutical Research Center, San Diego. Cells were grown in Roswell Park Memorial Institute medium (RPMI) with 20% Fetal Bovine Serum (FBS). AML-193 was also supplemented with granulocyte-macrophage colony-stimulating factor (GM-CSF) (10 ng/ml), insulin (0.005 mg/ml), and transferrin (0.005 mg/ml).
(§2) The cells of Example 1 were inoculated into 6-well plates at an initial concentration of 1×10^5 cells/ml. (B)-6-[amino(4-chlorophenyl)(1-methyl-1H-imidazol-5-yl)methyl]-4-(3-chlorophenyl)-1-methyl-2(1H)-quinolinone) was added at concentrations ranging form 0.5 to 500 nM in 3 μl of DMSO directly to the culture medium. Control cells from Example 1 were grown in medium alone or in medium supplemented with vehicle (0.1% DMSO). Cell numbers were counted at days four and seven in a hemocytometer and cell viability was determined by trypan blue exclusion assay. The IC50 was defined as the dose at which the number of viable cells in the treated sample was 50% of that in the control at day seven. Calculations were made based on duplicate runs of the experiment. The IC50 of the four cell lines was calculated after seven days of treatment with the FTI.

Another assay relates to THP-1 cells. The description is as above. As to conditions: seven days of treatment, duplicate runs, read-out: IC50 (dose at which the number of viable cells in the treated sample was 50% of that in the control at day seven). Format: cell-based. As to the method:
as §1, §2

For another assay, the system named is U-937 cells. The description is as above. The assay is classed as cell-based. As to conditions: seven days of treatment, duplicate runs, read-out: IC50 (dose at which the number of viable cells in the treated sample was 50% of that in the control at day seven). On the procedure: as §1, §2
In the next assay the test system is AML-193 cells. The description is as above. The assay is classed as cell-based. As to conditions: seven days of treatment, duplicate runs, read-out: IC50 (dose at which the number of viable cells in the treated sample was 50% of that in the control at day seven). As to the method: as §1, §2
In assay [2] the test system is blast cells in bone marrow. Put plainly: Clinical response of AML patients treated with FTI (blast cells in bone marrow aspirates). The assay is classed as in vivo. As to conditions: 600 mg twice daily over a 21 day period. An excerpt:
The therapeutic agents referred to in this specification are FTIs. They take on a multitude of forms but share the essential inhibitory function of interfering with or lessening the farnesylation of proteins implicated in cancer and proliferative diseases. Preferably, the FTIs are those indicated for the treatment of leukemias such as AML. A patient who responds to an FTI is one in whom a reduction of more than 50% of blast cells is seen in bone marrow following treatment with the FTI.
Bone marrow aspirates were obtained from two patients diagnosed with AML who had been treated with FTI. These AML patients were administered 600 mg (B)-6-[amino(4-chlorophenyl)(1-methyl-1H-imidazol-5-yl)methyl]-4-(3-chlorophenyl)-1-methyl-2(1H)-quinolinone) twice daily over a 21 day period. Bone marrow aspirates were taken at baseline and once a week for the three weeks of treatment. […] Response was determined as a reduction of more than 50% of blast cells in bone marrow aspirates. The aspirates were diluted to 15 ml with PBS and Ficoll-density centrifuged. White blood cells were washed twice with PBS, resuspended in FBS with 10% DMSO and immediately frozen at −80° C. Cells were cryogenically preserved to maintain cell viability. Samples were thawed at 37° C. and 10× volume of RPMI with 20% FBS was added drop-wise over a period of 5 min. […] Cell viability was determined by Trypan Blue assay. […]

For orientation: IC50 means the point on the concentration scale where inhibition reaches its midpoint. On to `Cn1cncc1[C@@](N)(c1ccc(Cl)cc1)c1ccc2c(c1)c(-c1cccc(Cl)c1)cc(=O)n2C` [(B)-6-[amino(4-chlorophenyl)(1-methyl-1H-imidazol-5-yl)methyl]-4-(3-chlorophenyl)-1-methyl-2(1H)-quinolinone)], for which the “Overall change in gene expression, treated versus control samples from the same day (scatter-plot correlation)” value in assay [1] is “no gross changes in gene expression”. Moreover, the half-maximal inhibitory concentration (IC50) in the assay with HL-60 cells turned out to be 24 nM; in the assay on THP-1 cells it was 19 nM; in the assay on U-937 cells, 44 nM; with AML-193 cells, 134 nM. The figures for the “Response (reduction of more than 50% of blast cells in bone marrow aspirates)” value in assay [2] (AML patient one) and in assay [2] (AML patient two) were “responded” and “did not respond”, respectively.
